Molecular target: T1, LPA3 receptor (Homo sapiens, UniProt Q9UBY5)
T1 sequence (Q9UBY5 1-353): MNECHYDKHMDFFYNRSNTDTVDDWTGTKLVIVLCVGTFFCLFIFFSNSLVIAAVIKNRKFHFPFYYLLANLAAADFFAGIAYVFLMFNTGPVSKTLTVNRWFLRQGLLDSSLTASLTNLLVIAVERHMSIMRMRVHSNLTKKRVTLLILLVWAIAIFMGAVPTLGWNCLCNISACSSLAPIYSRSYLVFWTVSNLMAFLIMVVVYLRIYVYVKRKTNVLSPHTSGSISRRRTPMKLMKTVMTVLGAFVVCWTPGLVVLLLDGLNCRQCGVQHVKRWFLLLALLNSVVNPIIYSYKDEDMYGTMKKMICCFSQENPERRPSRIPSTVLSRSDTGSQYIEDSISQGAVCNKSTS
Experiment: intracellular calcium, Fura-2 AM, induced HEK […] Flp-In TREx cells
Format: cell-based

| Compound | EC50 [µM] |
| --- | --- |
| CCCCCCCC/C=C\CCCCCCCC(=O)OC[C@@H](COP(O)(O)=S)OC [OMPT] | ~0.06 |
| Fc1ccc([C@@H]2CCNC[C@H]2COc2ccc3c(c2)OCO3)cc1 [paroxetine] | ~30 |

— article doi:10.1101/2025.03.18.644008v1 (biorxiv, 2025)
